Laboratory results published in patent publication US9274101B2 (BIOLOG, Inc., priority 2001, dated 2016).
“Also recorded” adds a separate entry of the source.

Key:
Format in all cases: cell-based, human
HL-60 cells [1] = experiment: HL-60 responses to selected compounds at a range of concentrations; settings: for activity at 30 µM / activity at 100 µM / activity at 330 µM / activity at 1000 µM / activity at 3300 µM / activity at 10000 µM / activity at 15000 µM / activity at 20000 µM: Homo sapiens, HL-60, read-out: HL-60 Cell Responses to Selected Compounds from PM1 and PM2; for activity at 30 µM: Conc. 0.03 mM; for activity at 100 µM: Conc. 0.10 mM; for activity at 330 µM: Conc. 0.33 mM; for activity at 1000 µM: Conc. 1.00 mM; for activity at 3300 µM: Conc. 3.3 mM; for activity at 10000 µM: Conc. 10 mM; for activity at 15000 µM: Conc. 15 mM; for activity at 20000 µM: Conc. 20 mM
Method: In this Example, methods for testing unattached cells for their ability to use various concentrations of selected carbon sources are described. The carbon sources used in this Example were identified by the methods disclosed in Example 27. Similarly, HL-60 cells were cultured as described in Example 27.
After washing, HL-60 cells were resuspended in DME-R. An aliquot of the cell suspension was counted by trypan blue exclusion and the cell density was adjusted to 6.67×10^5/mL. Fifty μL of DME-R were added to each well of the appropriate number of half area, 96-well plates, followed by 23 μL of the appropriate dilution of each test energy source. Stocks of 133 mM of each test chemical were prepared in tissue culture grade water, sterile filtered, and dilutions were prepared in a master plate so that, upon dilution in a total volume of 150 μL, the final concentrations would be 0.033 to 20 mM. Negative control wells received 23 μL of tissue culture grade water. The cells were plated at a volume of 75 μL/well, giving a final cell density of 5×10^4/well. For each plate containing energy sources and cells, a second, control plate containing only energy sources was prepared. Plates were incubated at 5% CO2, 90-100% humidity, and 37° C. for 24 hours prior to addition of the MTS/MPMS colorometric reagent (7.5 μL/well). The color formed in each well after an additional 24 hour incubation period, was measured on a plate reader at 490 nm with a reference wavelength of 650 nm. OD values from the control plate were subtracted from the OD values obtained with cells prior to normalizing the data to % negative control (cells without added energy source).

HepG2 cells = HepG2 cells on flat bottom plastic wells, energy sources at a range of concentrations; settings: Homo sapiens, HepG2, 72 h, read-out: HepG2 Cells Responses After 72 hours in Culture and a 4 hour Color Development Period; for activity at 30 µM: Conc. 0.03 mM; for activity at 100 µM: Conc. 0.10 mM; for activity at 330 µM: Conc. 0.33 mM; for activity at 1000 µM: Conc. 1.00 mM; for activity at 3300 µM: Conc. 3.3 mM; for activity at 10000 µM: Conc. 10 mM; for activity at 15000 µM: Conc. 15 mM; for activity at 20000 µM: Conc. 20 mM
Method: In this Example, methods for testing adherent cells for their ability to use multiple carbon sources are described. The human hepatocellular carcinoma cell line known as HepG2 (Knowles et al., Science, 209:497-499 [1980]) was chosen for this experiment. However, this application is not intended to be limited to the use of HepG2 cells, hepatocytes, carcinoma cells or even human cells.
HepG2 cells were grown in Falcon tissue culture flasks with vented tops. The culture medium used was Minimal Essential medium (MEM, Invitrogen 11095) with 1 g/L glucose, 2 mM L-glutamine, 2.2 g/L sodium bicarbonate, 10 mg/L phenol red, and supplemented with 0.1 mM Nonessential Amino Acids, 1 mM sodium pyruvate, 50 U/mL penicillin, 50 μg/mL streptomycin, and 10% (v/v) heat inactivated fetal bovine serum (HI FBS, Invitrogen 16140). The cells were seeded at 2×10^4/cm^2 and used 3 days after initiation of culture. During all incubations, the cells were kept in an atmosphere of 5% CO2, 90-100% humidity, and 37° C. Cells were harvested by trypsinization for 3 minutes in 0.25% trypsin-1 mM EDTA and resuspended in an equal volume of culture medium. A viable cell count was obtained by trypan blue exclusion and an appropriate volume of the cell suspension (to have 33% more viable cells than was sufficient for the experiment) was placed in a polypropylene centrifuge tube. Cells were pelleted by centrifugation at 350×g for 10 minutes at room temperature, resuspended in Dulbecco's Phosphate Buffered Saline (D-PBS, Invitrogen 14040) and centrifuged a second time. Cells were then resuspended to two-thirds the final volume needed in Dulbecco' ? s Modified Eagle's Medium (DME, Sigma D5030) containing 10% HI FBS and penicillin-streptomycin but without glucose, L-glutamine, sodium pyruvate, and phenol red. An aliquot was counted by trypan blue exclusion and the cell density was adjusted to 1.28×10^5/mL. Cells were plated in 100 μL/well in wells of standard, 96-well plates (4×10^4 cells/cm^2) and allowed to adhere overnight prior to addition of test chemicals.
For assay, the culture medium was aspirated, the wells were washed once with D-PBS and 170 μL of DME were added to each well, followed by 30 μL of the appropriate dilution of each test energy source. Stocks of 133 mM of each test chemical were prepared in tissue culture grade water, sterile filtered, and dilutions were prepared in a master plate so that, upon dilution into a regular 96-well MICROPLATE a total well volume of 200 μL, the final concentrations would be 0.033 to 20 mM. Negative control wells received 30 μL of tissue culture grade water. For each plate containing energy sources and cells, a second, control plate containing only energy sources was prepared. Plates were incubated at 5% CO2, 90-100% humidity, and 37° C. for 48 to 72 hours prior to addition of the MTS/PMS colorometric reagent (10 μL/well). The color formed in each well 4-24 hours after addition of the calorimetric reagent, was measured with a plate reader at 490 nm with a reference wavelength of 650 nm. OD values from the control plate were subtracted from the OD values obtained with cells prior to normalizing the data to % negative control (cells without added energy source).

[2] = test system: Undifferentiated HL-60 cells; experiment: Energy use by undifferentiated HL-60 cells; settings: Homo sapiens, HL-60, 24 h, read-out: Energy Use by Undifferentiated HL-60 Cells; for activity at 30 µM: Conc. 0.03 mM; for activity at 100 µM: Conc. 0.10 mM; for activity at 330 µM: Conc. 0.33 mM; for activity at 1000 µM: Conc. 1.00 mM; for activity at 3300 µM: Conc. 3.3 mM; for activity at 10000 µM: Conc. 10 mM; for activity at 15000 µM: Conc. 15 mM; for activity at 20000 µM: Conc. 20 mM
HL-60 cells [3] = experiment: Effect of 10 mM citric acid on HL-60 energy utilization; settings: for Effect of 10 mM Citric Acid on HL-60 Energy Utilization: negative control without energy sources and without citric acid
[4] = energy source 0.03 mM with 10 mM citric acid
[5] = energy source 0.10 mM with 10 mM citric acid
[6] = energy source 0.33 mM with 10 mM citric acid
[7] = energy source 1.00 mM with 10 mM citric acid
[8] = energy source 3.3 mM with 10 mM citric acid
[9] = energy source 10 mM with 10 mM citric acid
[10] = energy source 15 mM with 10 mM citric acid
[11] = energy source 20 mM with 10 mM citric acid

| SMILES | activity at 30 µM (HL-60 cells [1]) | activity at 100 µM (HL-60 cells [1]) | activity at 330 µM (HL-60 cells [1]) | activity at 1000 µM (HL-60 cells [1]) | activity at 3300 µM (HL-60 cells [1]) | activity at 10000 µM (HL-60 cells [1]) | activity at 15000 µM (HL-60 cells [1]) | activity at 20000 µM (HL-60 cells [1]) | activity at 30 µM (HepG2 cells) | activity at 100 µM (HepG2 cells) | activity at 330 µM (HepG2 cells) | activity at 1000 µM (HepG2 cells) | activity at 3300 µM (HepG2 cells) | activity at 10000 µM (HepG2 cells) | activity at 15000 µM (HepG2 cells) | activity at 20000 µM (HepG2 cells) | activity at 30 µM [2] | activity at 100 µM [2] | activity at 330 µM [2] | activity at 1000 µM [2] | also measured |
| --- | --- | --- | --- | --- | --- | --- | --- | --- | --- | --- | --- | --- | --- | --- | --- | --- | --- | --- | --- | --- | --- |
| O=C[C@H](O)[C@@H](O)[C@@H](O)[C@H](O)C(=O)O [D-galacturonic acid] | 124% | 125% | 126% | 138% | 140% | 122% | 101% | 25% | 124% | 140% | 171% | 177% | 165% | 179% | 228% | 162% | 116% | 116% | 116% | 141% | activity at 3300 µM [2]: 144%; activity at 10000 µM [2]: 134%; activity at 15000 µM [2]: 162%; activity at 20000 µM [2]: 113%; cell activity in the presence of citric acid, in words (HL-60 cells [3]; 10 mM citric acid): acitivity; also recorded: capable of overcoming the antiproliferative effects of citric acid; Effect of 10 mM Citric Acid on HL-60 Energy Utilization (HL-60 cells [3]; [4]): 1.4 % of negative control; Effect of 10 mM Citric Acid on HL-60 Energy Utilization (HL-60 cells [3]; [5]): 12.8 % of negative control; Effect of 10 mM Citric Acid on HL-60 Energy Utilization (HL-60 cells [3]; [6]): 43.5 % of negative control; Effect of 10 mM Citric Acid on HL-60 Energy Utilization (HL-60 cells [3]; [7]): 61.8 % of negative control; Effect of 10 mM Citric Acid on HL-60 Energy Utilization (HL-60 cells [3]; [8]): 141.6 % of negative control; Effect of 10 mM Citric Acid on HL-60 Energy Utilization (HL-60 cells [3]; [9]): 177.0 % of negative control; Effect of 10 mM Citric Acid on HL-60 Energy Utilization (HL-60 cells [3]; [10]): 136.3 % of negative control; Effect of 10 mM Citric Acid on HL-60 Energy Utilization (HL-60 cells [3]; [11]): 110.8 % of negative control |
| NC(=O)C[C@H](N)C(=O)O [L-asparagine] | 134% | 149% | 138% | 149% | 135% | 137% | 128% | 118% | 122% | 190% | 203% | 173% | 161% | 124% | 112% | 52.2% | 128% | 118% | 118% | 124% | response in words (HL-60 cells [1]; 0.033 to 20 mM): strongly utilized, even at very low concentrations; activity at 3300 µM [2]: 136%; activity at 10000 µM [2]: 141%; activity at 15000 µM [2]: 153%; activity at 20000 µM [2]: 157%; Effect of 10 mM Citric Acid on HL-60 Energy Utilization (HL-60 cells [3]; [4]): 10.1 % of negative control; Effect of 10 mM Citric Acid on HL-60 Energy Utilization (HL-60 cells [3]; [5]): 15.3 % of negative control; Effect of 10 mM Citric Acid on HL-60 Energy Utilization (HL-60 cells [3]; [6]): 13.4 % of negative control; Effect of 10 mM Citric Acid on HL-60 Energy Utilization (HL-60 cells [3]; [7]): 24.6 % of negative control; Effect of 10 mM Citric Acid on HL-60 Energy Utilization (HL-60 cells [3]; [8]): 48.6 % of negative control; Effect of 10 mM Citric Acid on HL-60 Energy Utilization (HL-60 cells [3]; [9]): 100.1 % of negative control; Effect of 10 mM Citric Acid on HL-60 Energy Utilization (HL-60 cells [3]; [10]): 97.7 % of negative control; Effect of 10 mM Citric Acid on HL-60 Energy Utilization (HL-60 cells [3]; [11]): 98.3 % of negative control |
